This is an account of results in patent US20250179073A1, “TRICYCLIC HETEROCYCLE COMPOUNDS AS IAP ANTAGONISTS” (Ascentage Pharma (Suzhou) Co., Ltd., priority 2022, published 2025).

Structures are written as SMILES.

One test deals with MDA-MB-231 cells. The test can be described thus: Cell proliferation assay (CellTiter-Glo), MDA-MB-231. Type of test: cell-based. Conditions: Homo sapiens, MDA-MB-231, 72 h, 72 h treatment, Celltiter-Glo luminescence. In outline: (§1)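 Compounds tested over ten concentrations ([…]) for 72 h on EVSA-T cells in MEM/10% FBS and MDA-MB-231 cells in RPMI-1640/10% FBS, seeded at 10000/well. Luminescent CellTiter-Glo readout; IC50 fitted after normalisation to controls.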

For the next test, the system named is EVSA-T cells. Briefly: Cell proliferation assay (CellTiter-Glo), EVSA-T. The class given is cell-based. Conditions: Homo sapiens, EVSA-T, 72 h, 72 h treatment, Celltiter-Glo luminescence. In outline:
as §1

One may read the IC50 as the concentration that inhibits the measured activity by half. On to `Cc1ncc(Cc2cc3c(n4ncnc24)C(C)(C)CN3C(=O)CN2C[C@@H](C)NC[C@@H]2CN2CCOC[C@H]2C)s1` [Compound 132, 1-(8,8-dimethyl-4-((2-methylthiazol-5-yl)methyl)-7,8-dihydro-6H-pyrrolo[2,3-e][1,2,4]triazolo[1,5-a]pyridin-6-yl)-2-((2R,5R)-5-methyl-2-(((R)-3-methylmorpholino)methyl)piperazin-1-yl)ethan-1-one], for which the IC50 was determined as 220 nM with MDA-MB-231 cells and 56 nM in the test on EVSA-T cells.

With `C[C@@H]1CN(CC(=O)N2CC(C)(C)c3c2cc([C@@H](O)c2ccc(F)cc2)c2ncnn32)[C@@H](CN2CCOC[C@H]2C)CN1` [Compound 133, 1-(4-((S)-(4-fluorophenyl)(hydroxy)methyl)-8,8-dimethyl-7,8-dihydro-6H-pyrrolo[2,3-e][1,2,4]triazolo[1,5-a]pyridin-6-yl)-2-((2R,5R)-5-methyl-2-(((R)-3-methylmorpholino)methyl)piperazin-1-yl)ethan-1-one], the IC50 with MDA-MB-231 cells was determined as 210 nM; in the test on EVSA-T cells, 56 nM.

In the case of `C[C@@H]1CN(CC(=O)N2CC(C)(C)c3c2cc([C@H](O)c2ccc(F)cc2)c2ncnn32)[C@@H](CN2CCOC[C@H]2C)CN1` [Compound 134, 1-(4-((R)-(4-fluorophenyl)(hydroxy)methyl)-8,8-dimethyl-7,8-dihydro-6H-pyrrolo[2,3-e][1,2,4]triazolo[1,5-a]pyridin-6-yl)-2-((2R,5R)-5-methyl-2-(((R)-3-methylmorpholino)methyl)piperazin-1-yl)ethan-1-one], the figures for the IC50 in the test with MDA-MB-231 cells and in the test with EVSA-T cells were 190 nM and 83 nM, respectively.

Take `C[C@@H]1CN(CC(=O)N2CC(C)(C)c3c2cc(Cc2ccc(F)cc2)c2nn(C)c(=O)n32)[C@@H](CN2CCOC[C@H]2C)CN1` [Compound 135, 4-(4-fluorobenzyl)-2,8,8-trimethyl-6-(2-((2R,5R)-5-methyl-2-(((R)-3-methylmorpholino)methyl)piperazin-1-yl)acetyl)-2,6,7,8-tetrahydro-1H-pyrrolo[2,3-e][1,2,4]triazolo[4,3-a]pyridin-1-one]: the IC50 with MDA-MB-231 cells came to 40 nM; with EVSA-T cells, 4 nM.

Turning to `C[C@@H]1CN(CC(=O)N2CC(C)(C)c3c2cc(Cc2ccc(F)cc2)c2nc(C(C)(C)O)nn32)[C@@H](CN2CCOC[C@H]2C)CN1` [Compound 137, 1-(4-(4-fluorobenzyl)-2-(2-hydroxypropan-2-yl)-8,8-dimethyl-7,8-dihydro-6H-pyrrolo[2,3-e][1,2,4]triazolo[1,5-a]pyridin-6-yl)-2-((2R,5R)-5-methyl-2-(((R)-3-methylmorpholino)methyl)piperazin-1-yl)ethan-1-one], the results for the IC50 in the test on MDA-MB-231 cells and in the test with EVSA-T cells were 190 nM and 12 nM, respectively.

In the case of `C[C@@H]1CN(CC(=O)N2CC(C)(C)c3c2cc(C(F)c2ccc(F)cc2)c2ncnn32)[C@@H](CN2CCOC[C@H]2C)CN1` (stereo partly drawn) [Compound 138, 1-(4-(fluoro(4-fluorophenyl)methyl)-8,8-dimethyl-7,8-dihydro-6H-pyrrolo[2,3-e][1,2,4]triazolo[1,5-a]pyridin-6-yl)-2-((2R,5R)-5-methyl-2-(((R)-3-methylmorpholino)methyl)piperazin-1-yl)ethan-1-one], the figures for the IC50 in the test on MDA-MB-231 cells and with EVSA-T cells were 160 nM and 33 nM, respectively.

`C[C@@H]1CN(CC(=O)N2CC(C)(C)c3c2cc(Cc2ccc(F)cc2)c2nc(C4CCOCC4)nn32)[C@@H](CN2CCOC[C@H]2C)CN1` [Compound 140, 1-(4-(4-fluorobenzyl)-8,8-dimethyl-2-(tetrahydro-2H-pyran-4-yl)-7,8-dihydro-6H-pyrrolo[2,3-e][1,2,4]triazolo[1,5-a]pyridin-6-yl)-2-((2R,5R)-5-methyl-2-(((R)-3-methylmorpholino)methyl)piperazin-1-yl)ethan-1-one]: the IC50 with MDA-MB-231 cells is 45 nM; with EVSA-T cells, 3 nM.

As for `C[C@@H]1CN(CC(=O)N2CC(C)(C)c3c2cc(Cc2ccc(F)cc2)c2nc(C(F)F)nn32)[C@@H](CN2CCOC[C@H]2C)CN1` [Compound 142, 1-(2-(difluoromethyl)-4-(4-fluorobenzyl)-8,8-dimethyl-7,8-dihydro-6H-pyrrolo[2,3-e][1,2,4]triazolo[1,5-a]pyridin-6-yl)-2-((2R,5R)-5-methyl-2-(((R)-3-methylmorpholino)methyl)piperazin-1-yl)ethan-1-one], the IC50 in the test on MDA-MB-231 cells is 50 nM; in the test with EVSA-T cells, 2 nM.

For the compound `C[C@@H]1CN(CC(=O)N2CC(C)(C)c3c2cc(Cc2ccc(F)cc2)c2nc(N4CCOCC4)nn32)[C@@H](CN2CCOC[C@H]2C)CN1` [Compound 143, 1-(4-(4-fluorobenzyl)-8,8-dimethyl-2-morpholino-7,8-dihydro-6H-pyrrolo[2,3-e][1,2,4]triazolo[1,5-a]pyridin-6-yl)-2-((2R,5R)-5-methyl-2-(((R)-3-methylmorpholino)methyl)piperazin-1-yl)ethan-1-one], the figures for the IC50 in the test with MDA-MB-231 cells and in the test on EVSA-T cells were 43 nM and 3 nM, respectively.

Consider `C[C@@H]1CN(CC(=O)N2CC(C)(C)c3c2cc(Cc2ccc(F)cc2)c2nc(CF)nn32)[C@@H](CN2CCOC[C@H]2C)CN1` [Compound 144, 1-(4-(4-fluorobenzyl)-2-(fluoromethyl)-8,8-dimethyl-7,8-dihydro-6H-pyrrolo[2,3-e][1,2,4]triazolo[1,5-a]pyridin-6-yl)-2-((2R,5R)-5-methyl-2-(((R)-3-methylmorpholino)methyl)piperazin-1-yl)ethan-1-one], for which the half-inhibitory concentration (IC50) in the test with MDA-MB-231 cells came to 51 nM; in the test on EVSA-T cells, 3 nM.

In the case of `C[C@@H]1CN(CC(=O)N2CC(C)(C)c3c2cc(Cc2ccc(F)cc2)c2nc(C(F)(F)F)cn32)[C@@H](CN2CCOCC23CC3)CN1` [Compound 147, 2-((2R,5R)-2-((7-oxa-4-azaspiro[2.5]octan-4-yl)methyl)-5-methylpiperazin-1-yl)-1-(4-(4-fluorobenzyl)-8,8-dimethyl-2-(trifluoromethyl)-7,8-dihydro-6H-imidazo[1,2-a]pyrrolo[2,3-e]pyridin-6-yl)ethan-1-one], the values for the IC50 in the test on MDA-MB-231 cells and in the test on EVSA-T cells were 120 nM and 10 nM, respectively.

Consider `C[C@@H]1CN(CC(=O)N2CC(C)(C)c3c2cc(Cc2ccc(F)cc2)c2ccnn32)[C@@H](CN2CCOC[C@H]2C)CN1` [Compound 148, 1-(4-(4-fluorobenzyl)-8,8-dimethyl-7,8-dihydro-6H-pyrazolo[1,5-a]pyrrolo[2,3-e]pyridin-6-yl)-2-((2R,5R)-5-methyl-2-(((R)-3-methylmorpholino)Methyl)piperazin-1-yl)ethan-1-one], for which the results for the IC50 in the test on MDA-MB-231 cells and in the test with EVSA-T cells were 100 nM and 6 nM, respectively.

Turning to `C[C@@H]1CN(CC(=O)N2CC(C)(C)c3c2cc(Cc2ccc(F)cc2)c2c(C(N)=O)cnn32)[C@@H](CN2CCOC[C@H]2C)CN1` [Compound 149, 4-(4-fluorobenzyl)-8,8-dimethyl-6-(2-((2R,5R)-5-methyl-2-(((R)-3-methylmorpholino)methyl)piperazin-1-yl)acetyl)-7,8-dihydro-6H-pyrazolo[1,5-a]pyrrolo[2,3-e]pyridine-3-carboxamide], the IC50 in the test with MDA-MB-231 cells worked out at 100 nM; in the test on EVSA-T cells, 7 nM.

In the case of `C[C@@H]1CN(CC(=O)N2CC(C)(C)c3c2cc(Cc2ccc(F)cc2)c2n[nH]c(=O)n32)[C@@H](CN2CCOC[C@H]2C)CN1` [Compound 152, 4-(4-fluorobenzyl)-8,8-dimethyl-6-(2-((2R,5R)-5-methyl-2-(((R)-3-methylmorpholino)methyl)piperazin-1-yl)acetyl)-2,6,7,8-tetrahydro-1H-pyrrolo[2,3-e][1,2,4]triazolo[4,3-a]pyridin-1-one], the concentration for half-maximal inhibition (IC50) in the test with MDA-MB-231 cells is 170 nM; in the test on EVSA-T cells, 30 nM.

Turning to `C[C@@H]1CN(CC(=O)N2CC(C)(C)c3c2cc(Cc2ccc(F)cc2)c2nnc(C#N)n32)[C@@H](CN2CCOC[C@H]2C)CN1` [Compound 153, 4-(4-fluorobenzyl)-8,8-dimethyl-6-(2-((2R,5R)-5-methyl-2-(((R)-3-methylmorpholino)methyl)piperazin-1-yl)acetyl)-7,8-dihydro-6H-pyrrolo[2,3-e][1,2,4]triazolo[4,3-a]pyridine-1-carbonitrile], the values for the IC50 in the test with MDA-MB-231 cells and in the test on EVSA-T cells were 38 nM and 5 nM, respectively.

For `CC(O)c1nc2c(Cc3ccc(F)cc3)cc3c(n2n1)C(C)(C)CN3C(=O)CN1C[C@@H](C)NC[C@@H]1CN1CCOC[C@H]1C` (stereo partly drawn) [Compound 154, 1-(4-(4-fluorobenzyl)-2-(1-hydroxyethyl)-8,8-dimethyl-7,8-dihydro-6H-pyrrolo[2,3-e][1,2,4]triazolo[1,5-a]pyridin-6-yl)-2-((2R,5R)-5-methy 1-2-(((R)-3-methylmorpholino)methyl)piperazin-1-yl)ethan-1-one], the half-inhibitory concentration (IC50) in the test on MDA-MB-231 cells turned out to be 100 nM; with EVSA-T cells, 5 nM.

Consider `C[C@@H]1CN(CC(=O)N2CC(C)(C)c3c2cc(Cc2ccc(F)cc2)c2nc(N4CC(O)C4)nn32)[C@@H](CN2CCOC[C@H]2C)CN1` [Compound 159, 1-(4-(4-fluorobenzyl)-2-(3-hydroxyazetidin-1-yl)-8,8-dimethyl-7,8-dihydro-6H-pyrrolo[2,3-e][1,2,4]triazolo[1,5-a]pyridin-6-yl)-2-((2R,5R)-5-methyl-2-(((R)-3-methylmorpholino)methyl)piperazin-1-yl)ethan-1-one], for which the IC50 in the test with MDA-MB-231 cells is 20 nM; in the test on EVSA-T cells, 4 nM.

For `C[C@@H]1CN(CC(=O)N2CC(C)(C)c3c2cc(Cc2ccc(F)cc2)c2nc(C(F)(F)F)cn32)[C@@H](CN2[C@H](C)COC[C@H]2C)CN1` [Compound 161, 2-((2R,5R)-2-(((3R,5R)-3,5-dimethylmorpholino)methyl)-5-methylpiperazin-1-yl)-1-(4-(4-fluorobenzyl)-8,8-dimethyl-2-(trifluoromethyl)-7,8-dihydro-6H-imidazo[1,2-a]pyrrolo[2,3-e]pyridin-6-yl)ethan-1-one], the IC50 with MDA-MB-231 cells was 120 nM; in the test with EVSA-T cells, 30 nM.
